Results from patent US8552021B2, “Phosphoramidate derivatives of nucleosides” (Janssen Products, L.P., priority 2009, dated 2013).
Where two headings read alike, the source gives them in different places.

Experiments:
Format in all cases: cell-based
[1] = Cytotoxicity CC50 in Huh-7; conditions: human; Huh-7 cells
Description: (§1) The in vitro antiviral activity against HCV of the compounds of formula I can be tested in a cellular HCV replicon system based on Lohmann et al. (1999) Science 285:110-113, with the further modifications described by Krieger et al. (2001) Journal of Virology 75: 4614-4624 (incorporated herein by reference), which is further exemplified in the examples section. This model, while not a complete infection model for HCV, is widely accepted as the most robust and efficient model of autonomous HCV RNA replication currently available. […] It will be appreciated that it is important to distinguish between compounds that specifically interfere with HCV functions from those that exert cytotoxic or cytostatic effects in the HCV replicon model, and as a consequence cause a decrease in HCV RNA or linked reporter enzyme concentration. Assays are known in the field for the evaluation of cellular cytotoxicity based for example on the activity of mitochondrial enzymes using fluorogenic redox dyes such as resazurin. Furthermore, cellular counter screens exist for the evaluation of non-selective inhibition of linked reporter gene activity, such as firefly luciferase. Appropriate cell types can be equipped by stable transfection with a luciferase reporter gene whose expression is dependent on a constitutively active gene promoter, and such cells can be used as a counter-screen to eliminate non-selective inhibitors.

[2] = test system: HCV type 1b replicon in Huh-7 luc/neo (Huh-Luc) cells; assay: HCV replicon assay (Huh-Luc luciferase); conditions: three days incubation, luciferase activity, average where tested more than once, read-out: EC50 1b ET
Description: The compounds of formula I are examined for activity in the inhibition of HCV RNA replication in a cellular assay. […] The cellular assay can be based on a bicistronic expression construct, as described by Lohmann et al. (1999) Science vol. 285 pp. 110-113 with modifications described by Krieger et al. (2001) Journal of Virology 75: 4614-4624, in a multi-target screening strategy. The Bartenschlager replicon assays are available commercially from ReBLikon GmbH in Mainz, Germany.
In essence, the method is as follows.
The assay utilized the stably transfected cell line Huh-7 luc/neo (hereafter referred to as Huh-Luc). This cell line harbors an RNA encoding a bicistronic expression construct comprising the wild type NS3—NS5B regions of HCV type 1b translated from an Internal Ribosome Entry Site (IRES) from encephalomyocarditis virus (EMCV), preceded by a reporter portion (FfL-luciferase), and a selectable marker portion (neo^R, neomycine phosphotransferase). The construct is bordered by 5′ and 3′ NTRs (non-translated regions) from HCV type lb. Continued culture of the replicon cells in the presence of G418 (neo^R) is dependent on the replication of the HCV RNA. The stably transfected replicon cells that express HCV RNA, which replicates autonomously and to high levels, encoding inter alia luciferase, are used for screening the antiviral compounds.
The replicon cells were plated in well plates in the presence of the test and control compounds, which were added in various concentrations. Following an incubation of three days, HCV replication was measured by assaying luciferase activity (using standard luciferase assay substrates and reagents and a Perkin Elmer ViewLux™ ultraHTS microplate imager). Replicon cells in the control cultures have high luciferase expression in the absence of any inhibitor. The inhibitory activity of the compound on luciferase activity was monitored on the Huh-Luc cells, enabling a dose-response curve for each test compound. EC50 values were then calculated, which value represents the amount of the compound required to decrease by 50% the level of detected luciferase activity, or more specifically, the ability of the genetically linked HCV replicon RNA to replicate. Where a compound of formula (I) was tested more than once in the replicon assay, the average of all test results is given in Table 1.

Huh-7 = assay: Cytotoxicity CC50 in Huh-7; conditions: Huh-7 cells
Description: as §1

Row | Compound | CC50 [1] [µM] | EC50 ([2]; Hepatitis C virus, Huh-7, 72 h) [µM] | CC50 (Huh-7) [µM] | EC50 [2] [µM]
1 | CC(C)OC(=O)C(C)(C)NP(=O)(OC[C@@]1(N=[N+]=[N-])O[C@@H](n2ccc(=O)[nH]c2=O)[C@@H](C)[C@@H]1O)Oc1ccccc1 (stereo partly shown) [Compound I-28] | > 98.4 | > 98.4 |  | 
2 | COCCOC(=O)C(C)NP(=O)(OCC1(N=[N+]=[N-])OC(n2ccc(=O)[nH]c2=O)C(C)C1O)Oc1ccccc1 (mixture of isomers) [Compound I-23] |  |  | > 98.3 | 32.1
3 | CC(NP(=O)(OC[C@@]1(N=[N+]=[N-])O[C@@H](n2ccc(=O)[nH]c2=O)[C@@H](C)[C@@H]1O)Oc1ccccc1)C(=O)OCc1ccccc1 (stereo partly shown) [Compound I-1] | > 100 | 5.95 |  | 
4 | CC(NP(=O)(OC[C@@]1(N=[N+]=[N-])O[C@@H](n2ccc(=O)[nH]c2=O)[C@@H](C)[C@@H]1O)Oc1ccccc1)C(=O)OC(C)(C)C (stereo partly shown) [Compound I-31] | > 98.4 | > 98.4 |  | 
5 | CCCC(CCC)COC(=O)C(C)NP(=O)(OCC1(N=[N+]=[N-])OC(n2ccc(=O)[nH]c2=O)C(C)C1O)Oc1ccccc1 (mixture of isomers) [Compound I-3] |  |  | 30.7 | 8.06
6 | CC(NP(=O)(OC[C@@]1(N=[N+]=[N-])O[C@@H](n2ccc(=O)[nH]c2=O)[C@@H](C)[C@@H]1O)Oc1ccccc1)C(=O)OC1CCCCC1 (stereo partly shown) [Compound I-7] | > 98.3 | 11.2 |  | 
7 | CCCOC(=O)C(C)NP(=O)(O)OC[C@@]1(N=[N+]=[N-])O[C@@H](n2ccc(=O)[nH]c2=O)[C@@H](C)[C@@H]1O (stereo partly shown) [Compound I-30] | > 98.4 | > 98.4 |  | 
8 | CCC(NP(=O)(O)OC[C@@]1(N=[N+]=[N-])O[C@@H](n2ccc(=O)[nH]c2=O)[C@@H](C)[C@@H]1O)C(=O)OCc1ccccc1 (stereo partly shown) [Compound I-33] |  | > 98.4 |  | 
9 | CCCC(CCC)COC(=O)[C@H](C)NP(=O)(O)OC[C@@]1(N=[N+]=[N-])O[C@@H](n2ccc(=O)[nH]c2=O)[C@@H](C)[C@@H]1O [Compound I-9] |  |  |  | 15.8
10 | CC(NP(=O)(OC[C@@]1(N=[N+]=[N-])O[C@@H](n2ccc(=O)[nH]c2=O)[C@@H](C)[C@@H]1O)Oc1ccccc1)C(=O)OC1CCCC1 (stereo partly shown) [Compound I-6] | > 98.3 | 10.5 |  | 
11 | C[C@@H]1[C@H](n2ccc(=O)[nH]c2=O)O[C@@](COP(=O)(NC(C)(C)C(=O)OCc2ccccc2)Oc2ccccc2)(N=[N+]=[N-])[C@H]1O (stereo partly shown) [Compound I-12] | > 100 | 13.9 |  | 
12 | CCCCOC(=O)C(C)(C)NP(=O)(OC[C@@]1(N=[N+]=[N-])O[C@@H](n2ccc(=O)[nH]c2=O)[C@@H](C)[C@@H]1O)Oc1ccccc1 (stereo partly shown) [Compound I-13] | 88.5 | 13.1 |  | 
13 | CCOC(=O)C(C)NP(=O)(OCC1(N=[N+]=[N-])OC(n2ccc(=O)[nH]c2=O)C(C)C1O)Oc1ccccc1 (mixture of isomers) [Compound I-16] |  |  | > 98.3 | 16.4
14 | CC(C)OC(=O)C(C)NP(=O)(OC[C@@]1(N=[N+]=[N-])O[C@@H](n2ccc(=O)[nH]c2=O)[C@@H](C)[C@@H]1O)Oc1ccccc1 (stereo partly shown) [Compound I-14] | > 100 | 14.9 |  | 
15 | CCC(NP(=O)(O)OC[C@@]1(N=[N+]=[N-])O[C@@H](n2ccc(=O)[nH]c2=O)[C@@H](C)[C@@H]1O)C(=O)OC(C)C (stereo partly shown) [Compound I-27] |  | > 98.4 |  | 
16 | C[C@@H]1[C@H](n2cc(I)c(=O)[nH]c2=O)O[C@@](COP(=O)(N[C@@H](C)C(=O)OCc2ccccc2)Oc2ccccc2)(N=[N+]=[N-])[C@H]1O (stereo partly shown) [Compound I-25] | > 98.3 | 57.3 |  | 

Row | Compound | CC50 [1] [µM] | EC50 ([2]; Hepatitis C virus, Huh-7, 72 h) [µM] | CC50 (Huh-7) [µM] | EC50 [2] [µM]
17 | CCC(NP(=O)(O)OC[C@@]1(N=[N+]=[N-])O[C@@H](n2ccc(=O)[nH]c2=O)[C@@H](C)[C@@H]1O)C(=O)OC (stereo partly shown) [Compound I-29] | > 98.4 | > 98.4 |  | 
18 | CCC(NP(=O)(OC[C@@]1(N=[N+]=[N-])O[C@@H](n2ccc(=O)[nH]c2=O)[C@@H](C)[C@@H]1O)Oc1ccccc1)C(=O)OCc1ccccc1 (stereo partly shown) [Compound I-21] | 81.8 | 29.2 |  | 
19 | CCC(NP(=O)(OC[C@@]1(N=[N+]=[N-])O[C@@H](n2ccc(=O)[nH]c2=O)[C@@H](C)[C@@H]1O)Oc1ccccc1)C(=O)OC (stereo partly shown) [Compound I-26] | > 98.3 | 74.7 |  | 
20 | CCOC(=O)C(C)NP(=O)(OCC1(N=[N+]=[N-])OC(n2ccc(=O)[nH]c2=O)C(C)C1O)Oc1cc(C)c(Cl)cc1C(C)C (mixture of isomers) [Compound I-24] |  |  | 55 | 37.7
21 | CCCCOC(=O)C(C)(C)NP(=O)(O)OC[C@@]1(N=[N+]=[N-])O[C@@H](n2ccc(=O)[nH]c2=O)[C@@H](C)[C@@H]1O [Compound I-32] |  | > 98.4 |  | 
22 | CCCCOC(=O)C(C)NP(=O)(OC[C@@]1(N=[N+]=[N-])O[C@@H](n2ccc(=O)[nH]c2=O)[C@@H](C)[C@@H]1O)Oc1ccccc1 (stereo partly shown) [Compound I-4] | > 98.3 | 9.33 |  | 
23 | CC(NP(=O)(OCC1(N=[N+]=[N-])OC(n2ccc(=O)[nH]c2=O)C(C)C1O)Oc1cccc2ccccc12)C(=O)OCc1ccccc1 (mixture of isomers) [Compound I-11] |  |  | > 100 | 13.8
24 | CCCCCOC(=O)C(C)NP(=O)(OC[C@@]1(N=[N+]=[N-])O[C@@H](n2ccc(=O)[nH]c2=O)[C@@H](C)[C@@H]1O)Oc1ccccc1 (stereo partly shown) [Compound I-5] | > 98.3 | 9.48 |  | 
25 | CCCCOC(=O)C(CC)NP(=O)(OC[C@@]1(N=[N+]=[N-])O[C@@H](n2ccc(=O)[nH]c2=O)[C@@H](C)[C@@H]1O)Oc1ccccc1 (stereo partly shown) [Compound I-20] | > 73.9 | 28 |  | 
26 | COC(=O)C(C)NP(=O)(OC[C@@]1(N=[N+]=[N-])O[C@@H](n2ccc(=O)[nH]c2=O)[C@@H](C)[C@@H]1O)Oc1ccccc1 (stereo partly shown) [Compound I-18] | > 98.3 | 27 |  | 
27 | CCC(NP(=O)(OC[C@@]1(N=[N+]=[N-])O[C@@H](n2ccc(=O)[nH]c2=O)[C@@H](C)[C@@H]1O)Oc1ccccc1)C(=O)OC(C)C (stereo partly shown) [Compound I-34] | > 98.4 | > 98.4 |  | 
28 | CCCC(CCC)COC(=O)C(C)NP(=O)(OCC1(N=[N+]=[N-])OC(n2ccc(=O)[nH]c2=O)C(C)C1O)Oc1ccc(Cl)cc1 (mixture of isomers) [Compound I-15] |  |  | > 100 | 15.3
29 | CCOC(=O)[C@H](C)NP(=O)(OC[C@@]1(N=[N+]=[N-])O[C@@H](n2ccc(=O)[nH]c2=O)[C@@H](C)[C@@H]1O)Oc1ccccc1 (single isomer, unassigned) [Compound I-8] |  |  | > 98.3 | 12
30 | CCCOC(=O)C(C)NP(=O)(OC[C@@]1(N=[N+]=[N-])O[C@@H](n2ccc(=O)[nH]c2=O)[C@@H](C)[C@@H]1O)Oc1ccccc1 (stereo partly shown) [Compound I-10] | > 98.3 | 12.9 |  | 
31 | CCOC(=O)[C@H](C)NP(=O)(OC[C@@]1(N=[N+]=[N-])O[C@@H](n2ccc(=O)[nH]c2=O)[C@@H](C)[C@@H]1O)Oc1ccccc1 (single isomer, unassigned) [Compound I-17] |  |  | > 98.3 | 17.3
